Test results taken from US9266857B2, “Bicyclic AZA compounds as muscarinic M1 receptor agonists” (Heptares Therapeutics Limited, priority 2012, dated 2016).

What was measured:
[1] = test system: scopolamine-induced amnesia; assay: Passive avoidance, scopolamine-induced amnesia; type: in vivo
Description: Studies were carried out as described previously by Foley et al., (2004) Neuropsychopharmacology. In the passive avoidance task scopolamine administration (1 mg/kg, i.p.) at 6 hours following training rendered animals amnesic of the paradigm. A dose range of 3, 10, and 30 mg/kg (po) free base, administered 90 minutes prior to the training period via oral gavage, was examined.

[2] = test system: fEPSPs in the CA1 region of rat hippocampal slices; assay: CA1 cell firing, fEPSPs in hippocampal slices; type: cell-based; settings: CA1 fEPSP amplitude, 6 slices averaged
Description: Rat hippocampal slices of 400 μm thickness were cut in chilled (<4° C.) artificial cerebrospinal fluid (aCSF, composition in mM: NaCl 127, KCl 1.6, KH2PO4 1.24, MgSO4 1.3, CaCl2 2.4, NaHCO3 26 and D-glucose 10) using vibratome. Slices were maintained in oxygenated (95% O2/5% CO2) aCSF at room temperature for at least 1 hr prior to electrophysiological recording, after which they were transferred to an interface chamber and constantly perfused with warmed (30° C.) oxygenated aCSF at a flow rate of 1.5-3 ml.min-1. Schaffer collaterals were then stimulated (1-20 V, 0.1 ms pulse width, 0.033 Hz) with a concentric bipolar electrode to evoke field excitatory post synaptic potentials (fEPSPs) recorded from the stratum radiatum of the CA1 region. Experiments were performed to examine the effect of compound compared to 1 μM carbachol (CCh), on the amplitude of fEPSPs in the CA1 region of rat hippocampal slices. 1 μM CCh was initially applied until steady-state, followed by wash, before performing a five point cumulative concentration-response to compound. Each compound was tested on 6 slices and results averaged. Drug preparation; compound was dissolved in 100% DMSO at a stock concentration of 30 mM, and diluted according to requirements, carbamoylcholine chloride (CCh) was purchased from Sigma (Cat#C4382) and dissolved at a stock concentration of 1 mM in ddH2O.

[3] = molecular target: T1, human muscarinic M4 receptor (Homo sapiens, UniProt P08173); assay: Alphascreen Surefire phospho-ERK1/2 functional assay, M4; type: cell-based
T1 construct: expressed in transfected cells
T1 sequence (P08173 1-479): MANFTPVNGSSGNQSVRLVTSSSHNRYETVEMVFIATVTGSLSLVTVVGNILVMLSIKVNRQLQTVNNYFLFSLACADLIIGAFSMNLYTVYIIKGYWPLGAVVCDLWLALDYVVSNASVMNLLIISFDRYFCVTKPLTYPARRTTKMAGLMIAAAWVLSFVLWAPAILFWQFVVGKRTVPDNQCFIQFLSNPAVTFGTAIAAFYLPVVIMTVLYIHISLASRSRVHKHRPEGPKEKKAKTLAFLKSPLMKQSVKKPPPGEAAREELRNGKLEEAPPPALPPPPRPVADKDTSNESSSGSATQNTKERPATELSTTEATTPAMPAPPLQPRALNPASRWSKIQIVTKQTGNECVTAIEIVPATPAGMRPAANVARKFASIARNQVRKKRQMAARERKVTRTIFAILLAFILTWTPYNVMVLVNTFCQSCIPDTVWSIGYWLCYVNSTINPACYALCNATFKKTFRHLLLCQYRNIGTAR
Description: (§1) ERK1/2 phosphorylation is a downstream consequence of both Gq/11 and Gi/o protein coupled receptor activation, making it highly suitable for the assessment of M1, M3 (Gq/11 coupled) and M2, M4 receptors (Gi/o coupled), rather than using different assay formats for different receptor subtypes. CHO cells stably expressing the human muscarinic M1, M2, M3 or M4 receptor were plated (25K/well) onto 96-well tissue culture plates in MEM-alpha+10% dialysed FBS. Once adhered, cells were serum-starved overnight. Agonist stimulation was performed by the addition of 5 μL agonist to the cells for 5 min (37° C.). Media was removed and 50 μL of lysis buffer added. After 15 min, a 4 μL sample was transferred to 384-well plate and 7 μL of detection mixture added. Plates were incubated for 2 h with gentle agitation in the dark and then read on a PHERAstar plate reader.
(§2) pEC50 and Emax figures were calculated from the resulting data for each receptor subtype.

[4] = molecular target: T2, human muscarinic M1 receptor (Homo sapiens, UniProt P11229); assay: Alphascreen Surefire phospho-ERK1/2 functional assay, M1; type: cell-based
T2 construct: expressed in transfected cells
T2 sequence (P11229 1-460): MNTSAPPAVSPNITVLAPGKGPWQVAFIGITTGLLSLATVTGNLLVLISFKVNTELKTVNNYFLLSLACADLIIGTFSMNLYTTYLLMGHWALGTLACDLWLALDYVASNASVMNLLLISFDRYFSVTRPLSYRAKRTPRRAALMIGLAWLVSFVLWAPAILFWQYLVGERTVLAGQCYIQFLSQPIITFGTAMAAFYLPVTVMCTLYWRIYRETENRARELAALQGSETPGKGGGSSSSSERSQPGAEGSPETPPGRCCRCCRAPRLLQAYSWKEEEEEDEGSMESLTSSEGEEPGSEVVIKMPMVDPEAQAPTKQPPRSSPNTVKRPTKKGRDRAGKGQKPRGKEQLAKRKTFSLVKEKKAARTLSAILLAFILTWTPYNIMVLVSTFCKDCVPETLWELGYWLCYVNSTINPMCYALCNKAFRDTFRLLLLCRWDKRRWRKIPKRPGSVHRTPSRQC
Description: as §1, §2

[5] = molecular target: T3, human muscarinic M3 receptor (Homo sapiens, UniProt P20309); assay: Alphascreen Surefire phospho-ERK1/2 functional assay, M3; type: cell-based
T3 construct: expressed in transfected cells
Description: as §1, §2

[6] = molecular target: T4, human muscarinic M2 receptor (Homo sapiens, UniProt P08172); assay: Alphascreen Surefire phospho-ERK1/2 functional assay, M2; type: cell-based
T4 construct: expressed in transfected cells
T4 sequence (P08172 1-466): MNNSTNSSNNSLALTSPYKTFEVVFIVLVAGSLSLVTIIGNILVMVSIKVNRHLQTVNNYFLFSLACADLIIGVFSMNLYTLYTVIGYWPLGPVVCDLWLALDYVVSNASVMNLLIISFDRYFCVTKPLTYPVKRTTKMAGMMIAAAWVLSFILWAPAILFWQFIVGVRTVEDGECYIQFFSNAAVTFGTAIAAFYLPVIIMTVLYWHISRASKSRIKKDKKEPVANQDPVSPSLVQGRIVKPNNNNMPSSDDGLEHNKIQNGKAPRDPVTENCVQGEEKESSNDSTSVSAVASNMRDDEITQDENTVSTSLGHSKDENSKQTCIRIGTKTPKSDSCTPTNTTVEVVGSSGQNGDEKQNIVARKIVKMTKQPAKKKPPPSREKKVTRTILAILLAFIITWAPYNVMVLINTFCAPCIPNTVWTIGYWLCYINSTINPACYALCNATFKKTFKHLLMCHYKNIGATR
Description: as §1, §2

T3 sequence (P20309 whole entry): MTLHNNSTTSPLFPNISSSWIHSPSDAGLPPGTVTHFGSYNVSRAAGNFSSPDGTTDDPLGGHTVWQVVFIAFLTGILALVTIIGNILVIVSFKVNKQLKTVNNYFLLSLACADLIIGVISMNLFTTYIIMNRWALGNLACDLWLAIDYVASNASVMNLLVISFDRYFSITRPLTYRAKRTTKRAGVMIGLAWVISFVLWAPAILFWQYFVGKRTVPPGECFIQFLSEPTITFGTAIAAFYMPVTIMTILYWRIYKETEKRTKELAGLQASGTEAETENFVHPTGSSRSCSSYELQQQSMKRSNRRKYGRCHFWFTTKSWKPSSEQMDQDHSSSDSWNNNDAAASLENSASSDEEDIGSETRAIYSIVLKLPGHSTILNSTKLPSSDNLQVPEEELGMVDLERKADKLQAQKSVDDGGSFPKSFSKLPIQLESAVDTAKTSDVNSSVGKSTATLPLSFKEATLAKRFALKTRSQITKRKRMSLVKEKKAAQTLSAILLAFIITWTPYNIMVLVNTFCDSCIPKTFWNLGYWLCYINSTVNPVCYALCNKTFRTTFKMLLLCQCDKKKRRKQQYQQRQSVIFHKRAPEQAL

CCOC(=O)N1CCC2(CC(N3CCC(C(=O)NC4(C)CCC4)CC3)C2)C1 (single isomer, unassigned) [Example 9 - Isomer 2, ethyl 2-{4-[(1-methylcyclobutyl)carbamoyl]piperidin-1-yl}-6-azaspiro[3.4]octane-6-carboxylate]
reversal of scopolamine-induced amnesia of the passive avoidance paradigm ([1]; 3, 10 and 30 mg/kg po): reverse scopolamine-induced amnesia of the paradigm in a dose-dependent manner | ED50 ([1]; po, 90 minutes prior to training, scopolamine 1 mg/kg i.p., read-out: approximate ED50, reversal of scopolamine-induced amnesia): ~10 mg/kg | EC50 [2]: 5700 nM | EC50 ([3]; CHO cells stably expressing human M4, phospho-ERK1/2, read-out: pEC50 M4 (converted)): 182 nM | Emax ([3]; CHO, read-out: % Emax cf. ACh, M4, CHO cells stably expressing human M4, relative to ACh): 66% | EC50 ([4]; CHO cells stably expressing human M1, phospho-ERK1/2, read-out: pEC50 M1 (converted)): 36.3 nM | Emax ([4]; CHO, read-out: % Emax cf. ACh, M1, CHO cells stably expressing human M1, relative to ACh): 100% | EC50 ([5]; CHO cells stably expressing human M3, phospho-ERK1/2, read-out: pEC50 M3 (converted)): > 20000 nM | Emax ([5]; CHO, read-out: % Emax cf. ACh, M3): 9% | EC50 ([6]; CHO cells stably expressing human M2, phospho-ERK1/2, read-out: pEC50 M2 (converted)): > 20000 nM | Emax ([6]; CHO, read-out: % Emax cf. ACh, M2): 15%
